{"source": "paper PMC12350162", "about": "“Electron flow in hydrogenotrophic methanogens under nickel limitation” (Nature, 2025)", "key": {"[1]": {"target": "T1, Elp–Hdr complex, HdrA site (bifurcating FAD) (Methanothermobacter marburgensis, UniProt Q50756)", "T1 construct": "with H(2):CoB-CoM heterodisulfide,ferredoxin reductase subunit B; H(2):CoB-CoM heterodisulfide,ferredoxin reductase subunit C; F420-dependent electron-donating protein A (truncated formate dehydrogenase alpha subunit FdhA homologue); F420-dependent electron-donating protein B (formate dehydrogenase beta subunit FdhB homologue); F420-dependent electron-donating protein C (MvhD homologue)", "T1 sequence (Q50756 2-659)": "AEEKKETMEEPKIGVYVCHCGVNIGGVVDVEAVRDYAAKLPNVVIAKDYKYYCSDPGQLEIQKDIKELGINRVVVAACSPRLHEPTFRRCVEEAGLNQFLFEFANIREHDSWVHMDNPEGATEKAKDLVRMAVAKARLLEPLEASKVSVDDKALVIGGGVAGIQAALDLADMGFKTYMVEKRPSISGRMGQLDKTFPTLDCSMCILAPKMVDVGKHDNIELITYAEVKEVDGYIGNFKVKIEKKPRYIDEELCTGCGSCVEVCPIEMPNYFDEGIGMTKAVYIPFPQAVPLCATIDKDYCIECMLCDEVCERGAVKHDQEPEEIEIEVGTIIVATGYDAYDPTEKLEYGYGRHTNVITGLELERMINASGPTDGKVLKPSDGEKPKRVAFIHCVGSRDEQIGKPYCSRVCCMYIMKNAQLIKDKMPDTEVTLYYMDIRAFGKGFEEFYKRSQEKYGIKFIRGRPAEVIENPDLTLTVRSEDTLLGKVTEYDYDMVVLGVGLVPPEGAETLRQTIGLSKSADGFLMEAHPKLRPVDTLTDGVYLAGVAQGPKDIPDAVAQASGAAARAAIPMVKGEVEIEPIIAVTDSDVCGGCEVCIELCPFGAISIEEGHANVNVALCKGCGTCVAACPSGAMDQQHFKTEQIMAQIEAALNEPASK", "T1 sequence (Q50755 whole entry partner, the tested form may be a part)": "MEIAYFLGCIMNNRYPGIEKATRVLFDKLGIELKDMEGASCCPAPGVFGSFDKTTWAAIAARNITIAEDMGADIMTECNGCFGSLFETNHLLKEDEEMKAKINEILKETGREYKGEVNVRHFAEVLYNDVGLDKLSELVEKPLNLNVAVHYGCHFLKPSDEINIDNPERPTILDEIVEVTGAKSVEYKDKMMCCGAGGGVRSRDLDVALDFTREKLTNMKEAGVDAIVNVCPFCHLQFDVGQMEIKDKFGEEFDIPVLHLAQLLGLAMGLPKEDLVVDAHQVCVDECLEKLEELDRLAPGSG", "T1 sequence (Q50754 2-185 partner)": "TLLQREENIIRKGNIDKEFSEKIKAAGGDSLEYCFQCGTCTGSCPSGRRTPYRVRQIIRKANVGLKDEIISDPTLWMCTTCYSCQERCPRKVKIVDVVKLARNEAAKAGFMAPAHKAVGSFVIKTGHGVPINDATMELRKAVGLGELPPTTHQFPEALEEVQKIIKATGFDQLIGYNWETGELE", "T1 sequence (D9PY04 1-342 partner)": "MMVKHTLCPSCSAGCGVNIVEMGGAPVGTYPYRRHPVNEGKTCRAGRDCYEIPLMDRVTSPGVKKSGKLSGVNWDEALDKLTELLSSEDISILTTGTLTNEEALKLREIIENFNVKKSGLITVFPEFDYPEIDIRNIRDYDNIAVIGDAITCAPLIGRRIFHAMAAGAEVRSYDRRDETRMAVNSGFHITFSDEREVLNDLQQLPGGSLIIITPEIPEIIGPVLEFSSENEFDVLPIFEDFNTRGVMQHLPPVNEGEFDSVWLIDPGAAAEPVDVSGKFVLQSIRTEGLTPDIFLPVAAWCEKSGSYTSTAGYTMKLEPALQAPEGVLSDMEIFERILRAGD", "T1 sequence (D9PY03 1-380 partner)": "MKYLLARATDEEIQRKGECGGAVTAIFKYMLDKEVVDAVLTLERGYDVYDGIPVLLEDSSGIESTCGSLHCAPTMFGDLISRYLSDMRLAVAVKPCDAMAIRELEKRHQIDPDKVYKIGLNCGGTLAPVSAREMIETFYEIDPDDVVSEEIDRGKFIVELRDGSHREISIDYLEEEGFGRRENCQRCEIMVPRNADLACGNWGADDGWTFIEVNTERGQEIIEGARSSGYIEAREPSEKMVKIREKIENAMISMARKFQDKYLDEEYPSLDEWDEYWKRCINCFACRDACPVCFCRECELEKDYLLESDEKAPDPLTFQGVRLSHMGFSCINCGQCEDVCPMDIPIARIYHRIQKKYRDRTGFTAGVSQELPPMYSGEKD", "T1 sequence (D9PY02 1-136 partner)": "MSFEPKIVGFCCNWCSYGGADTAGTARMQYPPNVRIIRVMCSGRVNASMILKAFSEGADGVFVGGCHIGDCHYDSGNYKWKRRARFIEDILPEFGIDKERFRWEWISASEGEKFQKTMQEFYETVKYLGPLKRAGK", "test": "cryo-EM structure", "format": "binding", "details": "electron-bifurcating FAD site of HdrA; co-purified native cofactor"}, "[2]": {"target": "T2, Elp–Hdr complex (ElpABC–HdrABC)2, ElpB site (Methanothermobacter marburgensis, UniProt D9PY03)", "T2 construct": "gene fdhB; with F420-dependent electron-donating protein A (truncated formate dehydrogenase alpha subunit FdhA homologue); F420-dependent electron-donating protein C (MvhD homologue); H(2):CoB-CoM heterodisulfide,ferredoxin reductase subunit A; H(2):CoB-CoM heterodisulfide,ferredoxin reductase subunit B; H(2):CoB-CoM heterodisulfide,ferredoxin reductase subunit C", "T2 sequence (D9PY03 1-380)": "as the sequence (D9PY03 1-380 partner) above", "T2 sequence (D9PY04 1-342 partner)": "as the sequence (D9PY04 1-342 partner) above", "T2 sequence (D9PY02 1-136 partner)": "as the sequence (D9PY02 1-136 partner) above", "T2 sequence (Q50756 2-659 partner)": "as the sequence (Q50756 2-659) above", "T2 sequence (Q50755 whole entry partner, the tested form may be a part)": "as the sequence (Q50755 whole entry partner, the tested form may be a part) above", "T2 sequence (Q50754 2-185 partner)": "as the sequence (Q50754 2-185 partner) above", "test": "cryo-EM structure", "details": "FAD-binding site of ElpB; co-purified native cofactor; states 1 and 2"}}, "data": [{"compound": "Cc1cc2nc3c(=O)[nH]c(=O)nc-3n(C[C@H](O)[C@H](O)[C@H](O)COP(=O)(O)OP(=O)(O)OC[C@H]3O[C@@H](n4cnc5c(N)ncnc54)[C@H](O)[C@@H]3O)c2cc1C", "note": "[FAD]", "values": [{"measurement": "cryo-EM structure", "setting": "[1]", "result": "Cofactors including the electron-bifurcating FAD of HdrA"}, {"measurement": "cryo-EM structure", "setting": "[2]", "result": "the positions of FAD and the four [4Fe–4S] clusters are conserved"}]}]}
